1 molecule from paper PMC9241959 (Chemical Science, 2022) can be followed below.

SMILES strings stand for the structures.

This assay concerns the target Phaseolus vulgaris erythroagglutinin (PHA-E) (Phaseolus vulgaris, UniProt P05088). Briefly: glycan microarray, fluorescence. Type of assay: binding. The settings on record: labelled compound: immobilised AEAB conjugate at reducing end.

Sequence of Phaseolus vulgaris erythroagglutinin (PHA-E) (P05088 22-275 limits assumed): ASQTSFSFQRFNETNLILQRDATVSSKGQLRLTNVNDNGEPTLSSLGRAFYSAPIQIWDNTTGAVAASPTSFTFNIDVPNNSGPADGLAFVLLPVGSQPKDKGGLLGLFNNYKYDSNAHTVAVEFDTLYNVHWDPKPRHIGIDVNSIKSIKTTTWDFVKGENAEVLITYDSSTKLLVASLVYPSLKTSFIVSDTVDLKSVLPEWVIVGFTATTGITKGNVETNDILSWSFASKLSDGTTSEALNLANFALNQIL

In the case of `CC(=O)N[C@H]1[C@H](O[C@H]2[C@H](O)[C@@H](NC(C)=O)C(O)O[C@@H]2CO)O[C@H](CO)[C@@H](O[C@@H]2O[C@H](CO[C@H]3O[C@H](CO)[C@@H](O)[C@H](O)[C@@H]3O[C@@H]3O[C@H](CO)[C@@H](O)[C@H](O)[C@H]3NC(C)=O)[C@@H](O[C@@H]3O[C@H](CO)[C@@H](O)[C@H](O)[C@H]3NC(C)=O)[C@H](O[C@H]3O[C@H](CO)[C@@H](O)[C@H](O)[C@@H]3O[C@@H]3O[C@H](CO)[C@@H](O)[C@H](O)[C@H]3NC(C)=O)[C@@H]2O)[C@@H]1O` (stereo partly shown) [compound 1, agalacto bisected N-glycan 1], the “RFU at 1 ug/mL lectin” value stood at 9197 RFU.
